# Experimental data as given in patent publication US8987263B2, “Basic esters of fatty alcohols and their use as anti-inflammatory or immunomodulatory agents” (priority 2002, dated 2015).
# Where two headings read alike, the source gives them in different places.
# Legend:
# [1] = system: experimental autoimmune encephalomyelitis (EAE); settings: DA rats; 40 mg IV on day of immunization; vs untreated control; FIG. 2
# [2] = system: adjuvant arthritis (AA); settings: Lewis rats
# [3] = system: EAE; settings: Lewis rats
# Description: EAE is induced in 7-9 weeks old female Lewis rats by injecting each foot pad with 25 μg of guinea MBP (50 μg total) in CFA (Sigma). The disease develops about 12 days after immunization and is characterized by paralysis of various degrees due to inflammation of the central nervous system. The rats are scored for paralysis on a scale of 0-4, as described above in Example 13.
# EAE was induced in 8-week-old female Lewis rats as described in Example 15 above with guinea pig MBP in CFA.
# (§1) The rats were scored for EAE on a severity scale of 0-4 as described above.
# as §1
# Rats were treated with Compound 9 (100 mg/Kg) per os. The rats were scored for EAE on a severity scale of 0-4 as described above.
# [4] = format: in vivo
# Description: The mice were scored according to following chart: 0—normal behavior; 1—slight toxic signs (piloerection); 2—moderate toxic signs (partial eye lid closure, hunched posture, hypoactivity, apathy); 3—severe toxic signs (ataxia, convulsions, gasping respiration, paralysis, unconscious); 4—death. Mice were weighed before immunization and on the day of the termination of the study. […] The spleens were weighed and spleen/body weight ratio was calculated.
# [5] = system: Spleen Cells of GA Immumized Mice; experiment: IL-2 secretion from spleen cells of immunized mice (ELISA); format: cell-based, C57BL/J6 mice; design: IL-2 Secretion from 5 × 10^6 Spleen Cells: unit not given here
# Description: (§2) EAE was tested in CSJL/F1 mice, immunological response was tested in C57BL/J6 mice. Healthy, specific pathogen-free, female CSJLF/1 and male C57BL/J6 mice, were obtained from Harlan Animal Breeding Center, Jerusalem, Israel. The mice were 9-week old at the initiation of the study, weighing 20 g±15%.
# (i) The mice were divided into 6 test groups as shown below:
# Mice were immunized 10 days prior to spleen collection.
# A solution of GA in PBS (final GA concentration of 1.5 mg/mL, for dose of 75 μg/mouse) was diluted in CFA to yield a final concentration of 0.75 mg/mL for dose of 75 μg/mouse GA. The mixtures (GA+CFA) were transferred into a syringe (2.5 mL) connected to a second syringe through a Luer lock bridge and mixed well by transferring the material from one syringe to another for about 10 minutes until the material is well emulsified.
# GA (20 mg vial) was dissolved in PBS to yield 20 mg/mL solution, then further diluted in PBS to yield a final GA concentration of 1.5 mg/mL for dose of 75 μg/mouse. Equal volumes of Compound 3 and GA or PBS for control group were mixed.
# Spleens were collected and pooled for each group in sterile RPMI medium. Cells were extracted resuspended in enriched DCCM1 medium and counted. […] Supernatants were collected and tested for levels of cytokines secretion.
# (vii) Detection of cytokine secretion in primary cultures from spleens was performed employing ELISA. Cells were activated in-vitro and IL-2 secretion levels were detected using commercial kits according to the provider's instructions.
# [6] = system: EAE; format: in vivo; settings: CSJL/F1 mice, GA 5.0 mg/mouse, Compound 3 0.5 mg/mouse
# Description: as §2
# (i) The mice were divided into 4 test groups as shown below:
# For immunization of group 1, a GA solution in PBS (100 mg/mL) was diluted 1:2 in IFA to yield a final concentration of 50 mg/mL for injection of 5.0 mg/mouse GA (0.1 ml). The GA+IFA mixtures were transferred into a syringe (2.5 mL) connected to a second syringe through a Luer lock bridge and mixed well by transferring the material from one syringe to another for about 10 minutes until the material was well emulsified.
# EAE was induced by injecting the encephalitogenic agent consisting of MSCH and commercial CFA containing Mycobacterium tuberculosis H37Ra to the foot-pads of the animals and pertussis toxin IV.
# They were weighed before immunization and once a week thereafter until the termination of the study. Ten days after induction of EAE, the mice were examined for EAE clinical signs and scored. The EAE clinical signs were observed and scored from the 9th day post-EAE induction until the termination of the experiment according to the following five-graded scale to assess clinical severity: 0, normal behavior; 1, weight loss; 2, tail weakness; 3, hind legs hypotonia and weakness; 4, hind legs paralysis; 4, severe total paralysis; 5, impaired respiration and/or convulsions and/or full paralysis or death.
# Calculation of mortality: The number of sick and dead animals in each group was determined, and the incidence of disease and mortality rate was calculated as follows: […]
# Calculation of percent activity: The percentage activity according to mortality was calculated as follows: […]
# Calculation of mean duration of disease and onset of disease: The mean duration of the disease and onset of disease expressed in days was calculated.
# Calculation of the mean maximal score and percent inhibition: The maximal scores of each of the 10 mice in the test group were summed.
# The mean maximal score (MMS) of the group was calculated as follows: […]
# The percent inhibition was calculated as follows: […]
# Calculation of the mean group score and percent inhibition: The scores of each of the 10 mice in the test group was summed.
# The mean group score (GMS) of the group was calculated as follows: […]
# [7] = system: delayed-type hypersensitivity (DTH) reaction; experiment: Oxazolone-induced DTH skin reaction, mouse ear-swelling test; format: in vivo, BALB/c mice; settings: for percent inhibition of DTH reaction: read after 24 hours; for reduction of inflammation in the DTH model: 0.5, 1, 2 and 4 mg in 40 μl 30 min after challenge, dexamethazone 2 mg/40 μl, FIG. 5
# Description: Delayed-type hypersensitivity (DTH), a localized inflammatory reaction induced by cytokines secreted by certain TH cells when they encounter certain types of antigens, is an established experimental model for skin inflammation.
# As a first step, DTH reactions were induced in the skin of 8-week-old female BALB/c mice. The mice were sensitized by topical application of 200 μl of a 2% oxazolone (4-ethoxymethylene-2-phenyl-2-oxazolin-5-one; Sigma, St. Louis, Mo.) solution in acetone/olive oil (4:1, vol/vol) to the shaved abdomen of the mice. Six days after sensitization, one ear of each mouse was challenged by topical application of 20 μl of a 0.5% oxazolone solution.
# Mice were induced with DTH as in Example 17. […] In addition, a positive control of dexamethazone (2 mg/40 μl) was administered. A group of DTH induced mice was also treated with (4-Methyl-piperazin-1-yl)-acetic acid ethyl ester HCl (negative control.)
# [8] = 0.2 mg per os every day from EAE induction
# [9] = 1 mg per os every day from EAE induction
# [10] = 2 mg per os every day from EAE induction
# [11] = 10 mg per os every day from EAE induction
# [12] = 20 mg per os every day from EAE induction
molecule,measurement,setting,value
"CCCCCCCC/C=C\CCCCCCCCOC(=O)CN(C)C [Compound 1, N,N-Dimethylamino-acetic acid octadec-(Z)-9-enyl ester]",prevention of paralysis (EAE score 0-4),[1],could prevent the paralysis to a significant degree
same,protection against the inflammation caused by AA (AA score 0-16),"[2]; 40 mg IV on day 0 or on day 14 after onset of AA, FIG. 1",could protect the rats against the inflammation caused by AA
"CCCCCCCC/C=C\CCCCCCCCOC(=O)CN1CCN(C)CC1.O=C(O)C(O)C(O)C(=O)O [Compound 3, (4-Methyl-piperazin-1-yl)-acetic acid octadec-(Z)-9-enyl ester tartrate]",% inhibition,[3]; [8],28%
same,Mean Clinic Score,[3]; [8],2.1
same,% inhibition,[3]; [9],28%
same,Mean Clinic Score,[3]; [9],2.1
same,% inhibition,[3]; [10],14%
same,Mean Clinic Score,[3]; [10],2.5
same,% inhibition,[3]; [11],28%
same,Mean Clinic Score,[3]; [11],2.1
same,% inhibition,[3]; [12],41%
same,Mean Clinic Score,[3]; [12],1.7
same,protection against EAE,"[3]; administered subcutaneously (10-200 mg, day 7 before induction) or orally",could protect the rats against EAE
same,effect on EAE,[3]; per os every other day from day of EAE induction (not shown),similarly effective
same,effect on mice weight,"[4]; Compound 3 50 and 500 μg/mouse, with or without GA 75 μg/mouse",no adverse effect
same,signs of immunosuppression,[4]; Compound 3 with or without GA,no signs of immunosuppression
same,effect on non-specific Con-A activation (IL-2),[5]; Con A as non-specific activator,no effect
same,IL-2 Secretion from 5 × 10^6 Spleen Cells,"[5]; GA activator conc. 2.5 (mg/mL), Comp. 3 50 μg/m (GA 75 μg/m where combined)",UQL
same,IL-2 Secretion from 5 × 10^6 Spleen Cells,"[5]; GA activator conc. 2.5 (mg/mL), Comp. 3 500 μg/m (GA 75 μg/m where combined)",UQL
same,IL-2 Secretion from 5 × 10^6 Spleen Cells,"[5]; GA activator conc. 25.0 (mg/mL), Comp. 3 50 μg/m (GA 75 μg/m where combined)",UQL
same,IL-2 Secretion from 5 × 10^6 Spleen Cells,"[5]; GA activator conc. 25.0 (mg/mL), Comp. 3 500 μg/m (GA 75 μg/m where combined)",7.9
same,IL-2 Secretion from 5 × 10^6 Spleen Cells,"[5]; activator Con A 2.5 (mg/mL), Comp. 3 50 μg/m (GA 75 μg/m where combined)",426.8
same,IL-2 Secretion from 5 × 10^6 Spleen Cells,"[5]; activator Con A 2.5 (mg/mL), Comp. 3 500 μg/m (GA 75 μg/m where combined)",426.8
same,IL-2 Secretion from 5 × 10^6 Spleen Cells,"[5]; activator conc. 0, Comp. 3 50 μg/m (GA 75 μg/m where combined)",UQL
same,IL-2 Secretion from 5 × 10^6 Spleen Cells,"[5]; activator conc. 0, Comp. 3 500 μg/m (GA 75 μg/m where combined)",UQL
same,IL-2 secretion from spleen cells in response to GA,"[5]; immunized with Compound 3 without GA, 50 and 500 μg/mouse",not elevated
same,GMS (group mean score) Value ± S.D.,[6],3.3 ± 0.6
same,MMS (mean maximal score) Value ± S.D.,[6],4.7 ± 0.5
same,Mean Duration,[6],4.7 ± 0.5 days
same,Mean onset,[6]; SC immunization 11 days before EAE induction,10.3 ± 0.5 days
same,GMS inhibition (inh.* 3),[6]; vs PBS control,3.2%
same,MMS inhibition (inh.* 2),[6]; vs PBS control,.0%
same,protection against AA,"[2]; 10, 50, 100 or 200 mg SC at day -7 before induction, FIG. 6",could protect the rats against AA
same,percent inhibition of DTH reaction,[7]; 1 mg topical on challenged ear 30 min after challenge,12.5%
same,percent inhibition of DTH reaction,[7]; 2 mg topical on challenged ear 30 min after challenge,8%
"CCCCCCCC/C=C\CCCCCCCCOC(=O)c1ccc(CN(C)C)cc1.Cl [Compound 5, 4-dimethylaminomethyl-benzoic acid octadec-(Z)-9-enyl ester HCl]",reduction of inflammation in the DTH model,[7],inhibit DTH Skin Reaction
"CCCCCCCC/C=C\CCCCCCCCOC(=O)CN1CCNCC1.O=C(O)C(O)C(O)C(=O)O [Compound 9, Piperazin-1-yl-acetic acid octadec-(Z)-9-enyl ester bitartrate]",protection against EAE,"[3]; 100 mg/Kg administered orally, FIG. 9",could protect the rats against EAE
same,% Sick rats,[3]; 100 Mg/Kg per os,100%
same,% inhibition,[3]; 100 Mg/Kg per os,31.4%
same,Mean Clinic Score,[3]; 100 Mg/Kg per os,1.93 ± 0.45
same,Mean onset,[3]; 100 Mg/Kg per os,11.5
same,reduction of inflammation in the DTH model,[7],inhibit DTH Skin Reaction
"CCCCCCCC/C=C\CCCCCCCCOC(=O)C(N)c1ccccc1.Cl (stereo not drawn) [Compound 11, α-Amino-α-phenyl-acetic acid octadec-(Z)-9-enyl ester HCl salt]",reduction of inflammation in the DTH model,[7],inhibit DTH Skin Reaction
"C[C@@H]1C[C@H]2[C@@H]3CCC4=CC(=O)C=C[C@]4(C)[C@@]3(F)[C@@H](O)C[C@]2(C)[C@@]1(O)C(=O)CO [dexamethazone, reference compound]",reduction of inflammation in the DTH model,[7],positive results in reducing inflammation
"CCOC(=O)CN1CCN(C)CC1.Cl [negative control, (4-Methyl-piperazin-1-yl)-acetic acid ethyl ester HCl, reference compound]",reduction of inflammation in the DTH model,[7],did not show any positive results
"glatiramer acetate [GA, reference compound]",IL-2 Secretion from 5 × 10^6 Spleen Cells,"[5]; GA activator conc. 2.5 (mg/mL), mice immunized with GA 75 μg/m, no Comp. 3",47.9
same,IL-2 Secretion from 5 × 10^6 Spleen Cells,"[5]; GA activator conc. 25.0 (mg/mL), mice immunized with GA 75 μg/m, no Comp. 3",124.3
same,IL-2 Secretion from 5 × 10^6 Spleen Cells,"[5]; activator Con A 2.5 (mg/mL), mice immunized with GA 75 μg/m, no Comp. 3",419.6
same,IL-2 Secretion from 5 × 10^6 Spleen Cells,"[5]; activator conc. 0, mice immunized with GA 75 μg/m, no Comp. 3",UQL
